Measurements: ChEMBL document CHEMBL1201862, “PubChem BioAssay data set” (2004)
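These data come from cells grown in 96-well plates and exposed to compound for 48 hours at five concentrations. GI50 marks 50% less growth.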 Active and inactive are the calls of the source. No stated cut-off is given here; in the data, active = GI50 up to about 1.1 µM and inactive = higher.

Columns and labels:
Test in all cases: inhibition of tumour cell growth, NCI panel, 48 h
[1] = tested on: 786-0
[2] = tested on: A549
[3] = tested on: ACHN
[4] = tested on: CCRF-CEM
[5] = tested on: DU-145
[6] = tested on: EKVX
[7] = tested on: HCC 2998
[8] = tested on: HL-60
[9] = tested on: HT-29
[10] = tested on: KM12
[11] = tested on: MDA-N
[12] = tested on: MOLT-4
[13] = tested on: Malme-3M
[14] = tested on: NCI-H226
[15] = tested on: NCI/ADR-RES
[16] = tested on: OVCAR-8
[17] = tested on: RPMI-8226
[18] = tested on: SF-268
[19] = tested on: SK-MEL-5
[20] = tested on: U-251

| Structure (SMILES) | GI50 [1] | GI50 [2] | GI50 [3] | GI50 [4] | GI50 [5] | GI50 [6] | GI50 [7] | GI50 [8] | GI50 [9] | GI50 [10] | GI50 [11] | GI50 [12] | GI50 [13] | GI50 [14] | GI50 [15] | GI50 [16] | GI50 [17] | GI50 [18] | GI50 [19] | GI50 [20] |
| --- | --- | --- | --- | --- | --- | --- | --- | --- | --- | --- | --- | --- | --- | --- | --- | --- | --- | --- | --- | --- |
| CC(=O)OC1C(C)OC(OC2C[C@](O)(C(C)=O)Cc3c(O)c4c(c(O)c32)C(=O)c2ccccc2C4=O)C(F)C1OC(C)=O (stereo partly drawn) | 0.287 µM (active) | 0.154 µM (active) | 0.114 µM (active) | 0.197 µM (active) | 0.23 µM (active) | 3.68 µM (inactive) | 1.91 µM (inactive) | 0.154 µM (active) | 1.42 µM (inactive) | 1.85 µM (inactive) | 1.88 µM (inactive) | < 0.0142 µM (active) | 1.14 µM (inactive) | 0.335 µM (active) | 1.45 µM (inactive) | 0.543 µM (active) | 0.175 µM (active) | 0.541 µM (active) | 0.408 µM (active) | 0.238 µM (active) |
| OC(CC(CC(O)(C(F)(F)F)C(F)(F)F)=NN=C(CC(O)(C(F)(F)F)C(F)(F)F)CC(O)(C(F)(F)F)C(F)(F)F)(C(F)(F)F)C(F)(F)F | > 10 µM (inactive) | > 10 µM (inactive) | > 10 µM (inactive) | > 10 µM (inactive) | > 10 µM (inactive) | > 10 µM (inactive) | > 10 µM (inactive) | > 10 µM (inactive) | > 10 µM (inactive) | > 10 µM (inactive) | > 10 µM (inactive) | > 10 µM (inactive) | > 10 µM (inactive) | > 10 µM (inactive) | > 10 µM (inactive) | > 10 µM (inactive) | > 10 µM (inactive) | > 10 µM (inactive) | > 10 µM (inactive) | > 10 µM (inactive) |
| COc1ccc2c(-c3ccc(O)cc3)c(Oc3ccccc3)c(=O)oc2c1 | 12.3 µM (inactive) | 8.17 µM (inactive) | > 34.4 µM (inactive) | 3.96 µM (inactive) | 4.58 µM (inactive) | 4.89 µM (inactive) | 18.3 µM (inactive) | 7.96 µM (inactive) | 11.7 µM (inactive) | 14.6 µM (inactive) | > 100 µM (inactive) | 5.11 µM (inactive) | 9.44 µM (inactive) | 29.9 µM (inactive) | 14.2 µM (inactive) | 16.2 µM (inactive) | 2.62 µM (inactive) | > 32.9 µM (inactive) | 3.95 µM (inactive) | > 22.9 µM (inactive) |
| CCCCCCCCCCCCCCCCCCOCC(COCCOCC[N+]1(CCCCCC(=O)[O-])CCCC1)Oc1ncccn1 (stereo not drawn) | 7.23 µM (inactive) | 3.95 µM (inactive) | 10 µM (inactive) | 2.59 µM (inactive) | 13.3 µM (inactive) | 14.6 µM (inactive) | 2.51 µM (inactive) | 0.395 µM (active) | 1.73 µM (inactive) | 2.58 µM (inactive) | 10.5 µM (inactive) | 4.92 µM (inactive) | 16.7 µM (inactive) | 11.2 µM (inactive) | 15.4 µM (inactive) | 2.56 µM (inactive) | 1.04 µM (active) | 3.51 µM (inactive) | 4.22 µM (inactive) | 0.547 µM (active) |
| Cc1cc2occ(S(=O)(=O)NC(=O)Nc3ccc(Cl)cc3)c(=O)c2c(=O)o1 | > 100 µM (inactive) | > 100 µM (inactive) | 40.2 µM (inactive) | > 100 µM (inactive) | > 100 µM (inactive) | > 100 µM (inactive) | > 100 µM (inactive) | > 100 µM (inactive) | > 100 µM (inactive) | > 100 µM (inactive) | > 100 µM (inactive) | > 100 µM (inactive) | > 100 µM (inactive) | > 100 µM (inactive) | > 100 µM (inactive) | > 100 µM (inactive) | > 100 µM (inactive) | > 100 µM (inactive) | > 100 µM (inactive) | > 100 µM (inactive) |
| COC1=NC(NC2OCC(O)C(O)C2O)=C(NC(C)=O)CN1C (stereo not drawn) | > 100 µM (inactive) | > 100 µM (inactive) | > 100 µM (inactive) | > 100 µM (inactive) | > 100 µM (inactive) | > 100 µM (inactive) | > 100 µM (inactive) | > 100 µM (inactive) | > 100 µM (inactive) | > 100 µM (inactive) | > 100 µM (inactive) | > 100 µM (inactive) | > 100 µM (inactive) | > 100 µM (inactive) | > 100 µM (inactive) | > 100 µM (inactive) | > 100 µM (inactive) | > 100 µM (inactive) | > 100 µM (inactive) | – |
| CN(C)CCNC(=O)Cn1cnc2cccc([N+](=O)[O-])c2c1=O | > 100 µM (inactive) | > 100 µM (inactive) | > 100 µM (inactive) | > 100 µM (inactive) | > 100 µM (inactive) | > 100 µM (inactive) | > 100 µM (inactive) | > 100 µM (inactive) | > 100 µM (inactive) | > 100 µM (inactive) | > 100 µM (inactive) | > 100 µM (inactive) | > 100 µM (inactive) | > 100 µM (inactive) | > 100 µM (inactive) | – | > 100 µM (inactive) | > 100 µM (inactive) | > 100 µM (inactive) | > 100 µM (inactive) |
